Data on one molecule can be found in patent publication US10047067B2, “Composition for treating kidney disease comprising pyrazole derivative” (Ewha University-Industry Collaboration Foundation, priority 2012, dated 2018).

Structures are written as SMILES.

Experiment [1] concerns collagen Iα1 expression in proximal tubular cells (mProx24). The experiment is described as follows: Inhibitory effect on collagen Iα1 expression in proximal tubular cells (hTGF-β1 stimulated, real-time PCR). The format is cell-based. The following applies: Mus musculus. The method, then:
mProx24, which is a name of the proximal tubular cells derived from proximal tubule segments obtained by finely sectioning the kidney of adult C57BL6/J mice, was granted from Professor Sugaya, St. Marianna University School of Medicine, Kanagawa, Japan. mProx24 was cultured in DMEM (Dulbecco's modified Eagle's medium) supplemented with 10% fetal calf serum (FCS, Gibco), 100 U/ml penicillin, 100 μg/ml streptomycin, and 44 mM NaHCO3 at 37° C. in a 5% CO2 atmosphere. For quantitation of RNA expression, the cells were cultured in 6-well plates. When the cells grew 90% confluent, the medium was changed with a fresh 0.15% FCS (Gibco)-supplemented DMEM. Incubation in this medium for 24 hrs halted the cell growth to synchronize the growth cycle in the cells. Compounds of Examples 1 to 9 and Comparative Example were respectively dissolved in DMSO (dimethylsulfoxide) to form a concentration of 50 mM, and subjected to serial dilution to 10 mM, 1 mM, 0.1 mM, and 0.01 mM. 10 mM, 1 mM, 0.1 mM, and 0.01 mM solutions of each of the compounds of Examples 1 to 9 and Comparative Example were 1,000-fold diluted in 0.15% FCS (Gibco)-supplemented DMEM to form final concentrations of 10 μM, 1 μM, 0.1 μM, and 0.01 μM, respectively. In addition, 0 μM (DMSO 1 μL) was used. The cells were incubated for 1 hr in the dilutions and then for 6 hrs in the presence of 5 ng/ml recombinant human transforming growth factor-β1 (hTGF-β1, R&D Systems). For the control, hTGF-β1 was not used. Total RNA was extracted from mProx24 using Trizol (Invitrogen). For quantitation of mRNA expression, a reaction volume of 20 μL including cDNA transcripts, primer pairs, and SYBR Green PCR Master Mix (Applied Biosystems) was subjected to real-time PCR with the aid of StepOnePlus (Applied Biosystems) (real-time PCR condition: 95° C., 10 min→40 thermal cycles of denaturation at 95° C. for 15 sec and primer annealing at 60° C. for 1 min→95° C. for 15 sec, 60° C. for 1 min, and 95° C. for 15 sec to measure a melting curve). Quantitation was normalized to 18S rRNA expression level. A pair of primers for mouse collagen Iα1 were 5′-[…]-3′(SEQ ID NO: 13) and 5′-[…]-3′ (SEQ ID NO: 14). Forward and reverse primers for mouse r18S rRNA were 5′-CGAAAGCATTTGCCAAGAAT-3′ (SEQ ID NO: 11) and 5′-AGTCGGCATCGTTTATGGTC-3′ (SEQ ID NO: 12), respectively.
Experiment results are given in Tables 3 to 12 and FIGS. 4 to 13. Tables 3 to 12 and FIGS. 4 to 13 show inhibitory effects of the compounds of Examples 1 to 9 and Comparative Example 1 on collagen Iα1 expression in proximal tubular cells.
Data of Tables 3 to 12 and FIGS. 4 to 13 are measurements of experiments repeated three to five times for each concentration, and are expressed as mean±standard error (SE). Statistic comparison among the groups was analyzed by ANOVA and Fisher's least significant difference test, with significance at p<0.05. *P<0.05 vs. WT, †P<0.05 vs. DM.
In Tables 3 to 12, mean values of expression level ratios of collagen Iα1 (Col1α) to 18S rRNA (18S), and % inhibition against collagen Iα1 expression for each group are shown, together with IC50 value (μM). In this regard, % inhibition means relative inhibition to 100% for the control and 0% for the group that was treated with hTGF-β1 but not with any of the compounds of Examples or Comparative Example.
In general terms: In qPCR the cycle at which signal appears reflects the starting amount.

A further experiment relates to C57BL/6J mice. In words: Glomerular hypertrophy and glomerular mesangial expansion (PAS staining of kidney). The settings on record: treatment group vs diabetes group, 10 mg/kg/day oral, 12 weeks. The format is in vivo. The method, then: For morphological analysis for examining glomerular hypertrophy and glomerular mesangial cell formation, a staining method was used as disclosed previously (Lee E A, Seo J Y, Jiang Z, Yu M R, Kwon M K, Ha H, Lee H B: Reactive oxygen species mediate high glucose-induced plasminogen activator inhibitor-1 up-regulation in mesangial cells and in diabetic kidney. Kidney Int. 67:1762-71, 2005). As described in Example 10, diabetes was induced in mice that were then treated with 1-(pyridin-2-yl)-3-phenyl-4-propyl-1H-pyrazol-5-ol.HCl, the compound of Example 1, and scarified 12 weeks later. After cardiac perfusion with 0.1 M PBS (phosphate-buffered saline), tissue fixation was performed overnight with 2% PLP (paraformaldehyde-lysine-periodate). […] In one renal tissue, 30 glomeruli were scanned, and measured for size and mesangial cell formation, using Image-Pro Plus 4.5 Software (MEDIA CYBERNETICS). The glomerular size was calculated according to Equation 1. […] Data of FIG. 1 are expressed as mean±standard error (SE) from 8 to 12 mice per group. Statistic comparison among the groups was analyzed by ANOVA and Fisher's least significant difference test, with significance at p<0.05. *P<0.05 vs. WT, †P<0.05 vs DM.

As to `CCCc1c(-c2ccccc2)nn(-c2ccccn2)c1O.Cl` [Compound 18-278, 1-(pyridin-2-yl)-3-phenyl-4-propyl-1H-pyrazol-5-ol.HCl], the mrna remaining at 0.01 µM in experiment [1] (Col1, 0.01 μM compound, mProx24, 5 ng/ml hTGF-β1 6 hrs, relative to hTGF-β1 alone = 1, read-out: Mean expression level ratio of collagen Iα1 (Col1α) to 18S rRNA) worked out at 82.1%. Moreover, in experiment [1] (Col1, 0.1 μM compound, mProx24, 5 ng/ml hTGF-β1 6 hrs, relative to hTGF-β1 alone = 1, read-out: Mean expression level ratio of collagen Iα1 (Col1α) to 18S rRNA), the mrna remaining at 0.1 µM turned out to be 70.1%. For the same molecule, the mrna remaining at 1 µM in experiment [1] (Col1, 1 μM compound, mProx24, 5 ng/ml hTGF-β1 6 hrs, relative to hTGF-β1 alone = 1, read-out: Mean expression level ratio of collagen Iα1 (Col1α) to 18S rRNA) was 51.6%. For the same molecule, in experiment [1] (Col1, 10 μM compound, mProx24, 5 ng/ml hTGF-β1 6 hrs, relative to hTGF-β1 alone = 1, read-out: Mean expression level ratio of collagen Iα1 (Col1α) to 18S rRNA), the mrna remaining at 10 µM turned out to be 36.9%. Also, the inhibition at 0.01 µM in experiment [1] (0.01 μM compound, mProx24, 100% = control without hTGF-β1, 0% = hTGF-β1 alone, read-out: expression inhibition rate (collagen Iα1)) stood at 20%. Moreover, the inhibition at 0.1 µM in experiment [1] (0.1 μM compound, mProx24, 100% = control without hTGF-β1, 0% = hTGF-β1 alone, read-out: expression inhibition rate (collagen Iα1)) amounted to 33.5%. In addition, in experiment [1] (1 μM compound, mProx24, 100% = control without hTGF-β1, 0% = hTGF-β1 alone, read-out: expression inhibition rate (collagen Iα1)), the inhibition at 1 µM came out at 54.2%. The inhibition at 10 µM in experiment [1] (10 μM compound, mProx24, 100% = control without hTGF-β1, 0% = hTGF-β1 alone, read-out: expression inhibition rate (collagen Iα1)) turned out to be 70.7%. Besides, in experiment [1] (mProx24, hTGF-β1 stimulated, read-out: IC50 (inhibition of collagen Iα1 expression)), the IC50 amounted to 742 nM. Besides, in the experiment on C57BL/6J mice, the “glomerular mesangial expansion (fractional mesangial area)” value was “reduced to the level of the control” and the “glomerular size (glomerular volume)” value is on record as “significantly smaller than that of the diabetes group”.

What is called inhibition is the percentage by which the read-out fell short of the control. As usually defined, the IC50 is the concentration at which inhibition is half-maximal.
